The text below walks through data of patent publication US5486516A, “Furopyrimidine derivatives” (DowElanco, priority 1993, dated 1996).

In assay [1] the test system is Pyricularia oryzae (rice blast). Briefly: whole plant or invertebrate. It counts as in vivo. The settings on record: foliar, read-out: RICE BLAST control rating.
For assay [2], the system named is Erysiphe graminis tritici (powdery mildew). The experiment in a line: Plant pathology screen (Test 1), powdery mildew on wheat. Conditions: Blumeria graminis, in Triticum aestivum, foliar, read-out: POWD MDEW control rating.
For assay [3], the system named is Botrytis cinerea (gray mold). Briefly: Plant pathology screen (Test 1), gray mold on grape berries. Conditions: read-out: GRAY MOLD control rating.
Procedure: (§1) This screen was used to evaluate the efficacy of the present compounds against a variety of different organisms that cause plant diseases.
(§2) The test compounds were formulated for application by dissolving 50 mg of the compound into 1.25 ml of solvent. The solvent was prepared by mixing 50 ml of "Tween 20" (polyoxyethylene (20) sorbitan monolaurate emulsifier) with 475 ml of acetone and 475 ml of ethanol. The solvent/compound solution was diluted to 125 ml with deionized water. The resulting formulation contains 400 ppm test chemical. Lower concentrations were obtained by serial dilution with the solvent-surfactant mixture.
(§3) The formulated test compounds were applied by foliar spray. The following plant pathogens and their corresponding plants were employed.
(§4) The formulated technical compounds were sprayed on all foliar surfaces of the host plants (or cut berry) to past run-off. Single pots of each host plant were placed on raised, revolving pedestals in a fume hood. Test solutions were sprayed on all foliar surfaces. All treatments were allowed to dry and the plants were inoculated with the appropriate pathogens within 2-4 hours.
(§5) The effectiveness of test compounds in controlling disease was rated using the following scale.
The test system of assay [4] is southern armyworm (Spodopetra eridania Cramer). Briefly: Mite/insect screen, Southern armyworm. In kind it is in vivo. Conditions: Spodoptera eridania, sprayed leaves, read-out: SAW results (percent mortality); for mortality at 200 ppm: rate 200 ppm; for mortality at 400 ppm: rate 400 ppm. The gist of the method:
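Southern armyworm larvae placed in Petri dishes with two excised squash leaves that had been sprayed to runoff (10 psi) with emulsified compound and air-dried for 1 h. Mortality in percent recorded after a standard exposure period; formulation acetone/alcohol plus Toximul R and S, water-diluted.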

The subject of assay [5] is melon aphids (Aphis gossvpii Glover). Briefly: Mite/insect screen, melon aphids. In kind it is in vivo. Conditions: Aphis, sprayed leaves, read-out: MA results (percent mortality); for mortality at 200 ppm: rate 200 ppm; for mortality at 400 ppm: rate 400 ppm. The gist of the method:
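Percent mortality of melon aphids was assessed after standard exposure periods. Infested squash cotyledons had been sprayed on both leaf surfaces until runoff at 10 psi with water-diluted test solutions. Compounds were formulated in acetone/alcohol (50:50) containing emulsifiers.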

Assay [6] has as its system Twospotted spider mites (Tetranychus urticae Koch). Briefly: Mite/insect screen, twospotted spider mites. Conditions: Tetranychus urticae, sprayed leaves, read-out: SM results (percent mortality); for mortality at 200 ppm: rate 200 ppm; for mortality at 400 ppm: rate 400 ppm. In kind it is in vivo. The gist of the method: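 Percent mortality, along with phytotoxicity, was read after standard exposure periods. Beforehand, mites established on both surfaces of squash cotyledons received a runoff spray (10 psi) of water-diluted compound formulated in acetone/alcohol with sulfonate/nonionic emulsifiers.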

For assay [7], the system named is Pseudoperonospora cubensis (downy mildew). Briefly: Plant pathology screen (Test 1), downy mildew on squash. Conditions: foliar, read-out: DOWN MDEW control rating.
Procedure: as §2, §3, §4, §5
For assay [8], the system named is Puccinia recondita tritici (leaf rust). Briefly: Plant pathology screen (Test 1), leaf rust on wheat. The settings on record: in Triticum aestivum, foliar, read-out: LEAF RUST control rating.
Procedure: as §1, §2
The formulated test compounds were applied by foliar spray.
as §4, §5
Assay [9] relates to Southern corn rootworm (Diabrotica undecimpuctata howardi Barber). Briefly: Mite/insect screen, corn rootworm. In kind it is in vivo. The settings on record: Diabrotica, soil, read-out: CRW results (percent mortality); for mortality at 12 ppm: CRW rate 12.00 ppm; for mortality at 24 ppm: CRW rate 24.00 ppm. The procedure, abridged: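 Five 2-3 instar larvae per cup were placed on sandy soil (15 g, with presoaked corn seed) treated 6–12 h earlier with 1 mL test solution, an emulsified acetone/alcohol formulation diluted in water. Cups kept at 23° C; mortality and phytotoxicity assessed as percent after standard exposures.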

As usually defined, the mortality is the share of the test organisms that died. Regarding `Cc1oc2ncnc(OCCc3ccc4ccccc4c3)c2c1C` [Example 55, 5,6-dimethyl-4-[2-(2-naphthyl)ethoxy]furo[2,3-d]pyrimidine], the pest or weed control at 400 µg/mL is 0 to 19% in [1]; 0 to 19% in assay [2]; 0 to 19% in assay [3]; 0 to 19% in [7]; 20 to 89% in assay [8]. The mortality at 200 ppm in assay [4], in assay [5] and in assay [6] was 0% each time. In addition, the mortality at 400 ppm in assay [4], in [5] and in assay [6] was 0% each time. The mortality at 12 ppm in assay [9] turned out to be 0%. Further, the mortality at 24 ppm in assay [9] stood at 0%.

On to `Cc1ccccc1Oc1ncnc2oc(C)c(C)c12` [Example 29, 5,6-dimethyl-4-(2-methylphenoxy)furo[2,3-d]pyrimidine], for which the pest or weed control at 400 µg/mL in assay [1] fell in the range of 20 to 89%; in assay [2], 20 to 89%; in assay [3], 0 to 19%; in assay [7], 20 to 89%; in [8], 20 to 89%. For the same compound, the mortality at 200 ppm in [4], in assay [5] and in assay [6] was 0% each time. For the same compound, the mortality at 400 ppm in assay [4], in assay [5] and in [6] was 0% in each case. Besides, the mortality at 12 ppm in [9] was 0%. Also, in assay [9], the mortality at 24 ppm is 0%.

Consider `CCOc1ccc(CCNc2ncnc3oc(C)cc23)cc1` [Example 9, 6-methyl-N-[2-(4-ethoxyphenyl)ethyl]furo(2,3-d]pyrimidin-4-amine], for which the pest or weed control at 400 µg/mL in assay [1] was 0 to 19%; in [2], 0 to 19%; in assay [3] it was 0 to 19%; in assay [7] it was 20 to 89%; in [8], 90 to 100%. Also, the mortality at 200 ppm in assay [4], in assay [5] and in assay [6] was 0% throughout. In addition, the mortality at 400 ppm in [4], in [5] and in assay [6] was 0% each time. The mortality at 12 ppm in [9] was 0%. The mortality at 24 ppm in [9] was 0%.

Turning to `Cc1coc2ncnc(NCCc3ccc4ccccc4c3)c12` [Example 21, 5-methyl-N-[2-(2-naphthyl)ethyl]furo[2,3-d]pyrimidin-4-amine], the pest or weed control at 400 µg/mL in assay [1] lay within 0 to 19%; in assay [2], 90 to 100%; in assay [3], 0 to 19%; in assay [7], 90 to 100%; in [8], 90 to 100%. For the same compound, the mortality at 200 ppm turned out to be 0% in assay [4], 100% in assay [5] and 80% in [6]. In addition, the figures for the mortality at 400 ppm in assay [4], in assay [5] and in assay [6] were 0%, 80% and 60%, respectively. Also, the mortality at 12 ppm in [9] turned out to be 100%. Besides, in assay [9], the mortality at 24 ppm amounted to 100%.

Consider `Cc1oc2ncnc(OCC3CCC(C)O3)c2c1C` (centres unmarked) [Example 60, 5,6-dimethyl-4-[(2-methyloxolan-5-yl)methoxy]furo[2,3-d]pyrimidine], for which the pest or weed control at 400 µg/mL in [1] lay in the range of 0 to 19%; in [2] it was 0 to 19%; in assay [3] it was 0 to 19%; in assay [7], 90 to 100%; in assay [8], 0 to 19%. Besides, the values for the mortality at 200 ppm in assay [4], in assay [5] and in assay [6] were 0%, 50% and 0%, respectively. Also, the mortality at 400 ppm in assay [4] came out at 0%; in assay [5], 60%; in [6], 80%. Also, the mortality at 12 ppm in assay [9] stood at 0%. In addition, in assay [9], the mortality at 24 ppm amounted to 0%.

Regarding `Cc1cc2c(OCCc3ccc(OC(C)(C)C)cc3)ncnc2o1` [Example 43, 6-methyl-4-[2-[4-(t-butoxy)phenyl]ethoxy]furo[2,3-d]pyrimidine], the pest or weed control at 400 µg/mL is 20 to 89% in assay [1]; 90 to 100% in assay [2]; 0 to 19% in [3]; 90 to 100% in [7]; 90 to 100% in [8]. Also, the mortality at 200 ppm in assay [4] came to 0%; in [5] it was 90%; in assay [6], 90%. In addition, the mortality at 400 ppm in assay [4] amounted to 0%; in assay [5], 80%; in assay [6], 80%. For the same compound, in assay [9], the mortality at 12 ppm came to 0%. Further, the mortality at 24 ppm in assay [9] came to 0%.

As to `Cc1cc2c(OCCc3ccc(OCc4ccccc4)cc3)ncnc2o1` [Example 39, 6-methyl-4-[2-[4-(phenylmethoxy)phenyl]ethoxy]furo[2,3-d]pyrimidine], the pest or weed control at 400 µg/mL in assay [1] was in the range of 0 to 19%; in assay [2], 0 to 19%; in assay [3] it was 0 to 19%; in assay [7] it was 0 to 19%; in [8], 90 to 100%. Moreover, the mortality at 200 ppm in assay [4], in assay [5] and in [6] was 0% in each case. Besides, the results for the mortality at 400 ppm in assay [4], in assay [5] and in [6] were 0%, 10% and 0%, respectively. In [9], the mortality at 12 ppm was 0%. In assay [9], the mortality at 24 ppm came out at 0%.

Regarding `CCOc1ccc(CCNc2ncnc3oc(C)c(C)c23)cc1` [Example 3, 5,6-dimethyl-N-[2-(4-ethoxyphenyl)ethyl]furo[2,3-d]pyrimidin-4-amine], the pest or weed control at 400 µg/mL in [1] fell in the range of 20 to 89%; in [2], 0 to 19%; in [3], 0 to 19%; in assay [7], 20 to 89%; in assay [8], 20 to 89%. For the same compound, the mortality at 200 ppm in [4] amounted to 30%; in assay [5] it was 0%; in assay [6], 0%. Moreover, the mortality at 400 ppm in [4], in assay [5] and in [6] was 0% throughout. In addition, the mortality at 12 ppm in assay [9] turned out to be 0%. Besides, in [9], the mortality at 24 ppm was found to be 0%.
